Test results as given in patent publication US20120178738A1, “DIBENZO [B,F] [1,4]OXAZAPINE COMPOUNDS” (ARYX THERAPEUTICS, INC., priority 2007, published 2012).
Like-named read-outs stand apart in the source and are kept apart here.

Tests used:
[1] = molecular target: T1, 5-HT2A receptor (Rattus norvegicus, UniProt P14842); assay: cell-based
T1 construct: Eight strips of tissue (0.5 cm long) were cut. and were mounted in 10 ml organ baths; tissue Charles River Laboratories; host or cells: rat aorta strips, endothelium removed
In short: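 Agonist EC50 and antagonist pKB or pA2 values come from curves fitted by Parker–Waud and from EC50 concentration-ratios with versus without antagonist. Tissue: rat aorta strips, endothelium removed, 37° C Krebs pH 7.4 with 95% O2/5% CO2, 2 g tension; response as % of 5-HT maximum.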

[2] = molecular target: T2, human D2s dopamine receptors (Homo sapiens, UniProt P14416); assay: hD2S receptor radioligand binding ([3H]spiperone); details: for Ki: pKi reported on a scale of 1 through 5
T2 construct: expressed in transfected cells; host or cells: Chinese hamster ovary cells (membranes)
In short: (§1)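 Equilibrium competition against a fixed radioligand level, using membranes or tissues expressing the receptor and a concentration series of unlabelled compound. Binding was quantified from filtration-separated, nonspecific-corrected concentration-response relationships.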

[3] = molecular target: T3, human 5HT1A receptors (Homo sapiens, UniProt P08908); assay: h5-HT1A receptor radioligand binding ([3H]8OH-DPAT); details: for Ki: pKi reported on a scale of 1 through 5; for binding to 5-HT1A: in words
T3 construct: expressed in transfected cells; host or cells: Chinese hamster ovary cells (membranes)
T3 sequence (P08908 1-422): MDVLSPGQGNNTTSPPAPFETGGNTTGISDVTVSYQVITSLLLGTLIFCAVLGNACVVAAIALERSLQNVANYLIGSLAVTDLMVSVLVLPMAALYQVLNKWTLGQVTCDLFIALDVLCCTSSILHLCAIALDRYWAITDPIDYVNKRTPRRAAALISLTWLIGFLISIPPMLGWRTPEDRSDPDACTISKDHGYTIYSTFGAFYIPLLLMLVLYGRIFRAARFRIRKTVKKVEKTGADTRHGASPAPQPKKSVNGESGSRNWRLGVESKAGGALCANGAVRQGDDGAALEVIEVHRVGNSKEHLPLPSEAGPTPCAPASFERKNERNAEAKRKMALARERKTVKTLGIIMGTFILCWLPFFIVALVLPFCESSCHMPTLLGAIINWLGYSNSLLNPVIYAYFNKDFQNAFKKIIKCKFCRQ
In short: as §1

[4] = molecular target: T4, human H1 receptors (Homo sapiens, UniProt P35367); assay: hH1 receptor radioligand binding ([3H]Pyrilamine); details: for Ki: pKi reported on a scale of 1 through 5; for binding to H1: in words
T4 construct: expressed in transfected cells; host or cells: Chinese hamster ovary cells (membranes)
In short: as §1

[5] = molecular target: T5, human M1 receptors (Homo sapiens, UniProt P11229); assay: hM1 receptor radioligand binding ([3H]NMS); details: for Ki: pKi reported on a scale of 1 through 5; for affinity to M1 receptors: in words
T5 construct: expressed in transfected cells; host or cells: Chinese hamster ovary cells (membranes)
T5 sequence (P11229 1-460): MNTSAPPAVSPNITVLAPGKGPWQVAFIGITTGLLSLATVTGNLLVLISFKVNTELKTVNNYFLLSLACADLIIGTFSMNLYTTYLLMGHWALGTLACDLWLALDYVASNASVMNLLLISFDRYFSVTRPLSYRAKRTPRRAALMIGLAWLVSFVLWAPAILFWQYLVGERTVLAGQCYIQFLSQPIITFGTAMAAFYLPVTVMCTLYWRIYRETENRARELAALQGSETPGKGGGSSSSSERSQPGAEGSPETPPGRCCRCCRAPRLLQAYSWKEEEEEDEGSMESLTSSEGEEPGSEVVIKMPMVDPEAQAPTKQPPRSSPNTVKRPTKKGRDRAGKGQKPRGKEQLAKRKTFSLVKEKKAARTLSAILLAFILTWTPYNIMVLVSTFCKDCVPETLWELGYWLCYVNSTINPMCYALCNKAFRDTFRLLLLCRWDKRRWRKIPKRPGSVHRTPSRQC
In short: as §1

[6] = molecular target: T6, human 5HT2C receptors (Homo sapiens, UniProt P28335); assay: h5-HT2C receptor radioligand binding ([3H]Mesulergine); details: for Ki: pKi reported on a scale of 1 through 5; for binding to 5-HT2c: in words
T6 construct: expressed in transfected cells; host or cells: human embryo kidney cells (membranes)
T6 sequence (P28335 33-458): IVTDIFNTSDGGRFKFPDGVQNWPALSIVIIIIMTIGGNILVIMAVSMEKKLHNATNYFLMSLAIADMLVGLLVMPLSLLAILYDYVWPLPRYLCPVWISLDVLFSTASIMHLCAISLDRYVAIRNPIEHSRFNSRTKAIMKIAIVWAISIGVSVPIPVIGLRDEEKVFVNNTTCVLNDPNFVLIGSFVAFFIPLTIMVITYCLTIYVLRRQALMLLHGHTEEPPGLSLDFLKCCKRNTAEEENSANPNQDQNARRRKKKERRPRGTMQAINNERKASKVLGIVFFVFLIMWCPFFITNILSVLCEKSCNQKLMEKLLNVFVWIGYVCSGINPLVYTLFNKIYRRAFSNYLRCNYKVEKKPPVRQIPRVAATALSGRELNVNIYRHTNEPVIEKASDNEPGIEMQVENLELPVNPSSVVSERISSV
In short: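 Test compound affinity was derived from concentration-dependent displacement of fixed [3H]mesulergine at equilibrium, after subtracting nonspecific binding measured with a reference blocker. Bound and free radioligand were separated by filtration of tissue or plasma-membrane preparations.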

[7] = molecular target: T7, human D2L dopamine receptors (Homo sapiens, UniProt P14416); assay: hD2L receptor radioligand binding ([3H]spiperone); details: for Ki: pKi reported on a scale of 1 through 5, read-out: D2L (pKi) (converted)
T7 construct: expressed in transfected cells; host or cells: insect Sf9 cells (membranes)
In short: as §1

[8] = read-out: 5HT2A (pKb) (converted)
[9] = relative to clozapine, in words

T4 sequence (P35367 whole entry): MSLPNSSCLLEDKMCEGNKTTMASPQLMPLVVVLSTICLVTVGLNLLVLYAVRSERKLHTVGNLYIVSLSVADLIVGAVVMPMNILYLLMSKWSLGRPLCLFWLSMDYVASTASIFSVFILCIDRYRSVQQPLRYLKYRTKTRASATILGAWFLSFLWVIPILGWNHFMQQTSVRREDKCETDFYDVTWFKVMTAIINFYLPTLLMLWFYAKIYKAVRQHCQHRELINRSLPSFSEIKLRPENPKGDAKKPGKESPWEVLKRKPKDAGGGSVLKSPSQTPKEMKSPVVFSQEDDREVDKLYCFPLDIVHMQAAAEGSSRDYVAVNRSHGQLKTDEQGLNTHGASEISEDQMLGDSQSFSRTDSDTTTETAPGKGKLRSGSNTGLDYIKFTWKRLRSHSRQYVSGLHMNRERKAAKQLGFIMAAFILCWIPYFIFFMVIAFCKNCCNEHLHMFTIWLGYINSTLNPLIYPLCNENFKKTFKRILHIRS
T2 sequence (P14416 1-414 isoform P14416-2): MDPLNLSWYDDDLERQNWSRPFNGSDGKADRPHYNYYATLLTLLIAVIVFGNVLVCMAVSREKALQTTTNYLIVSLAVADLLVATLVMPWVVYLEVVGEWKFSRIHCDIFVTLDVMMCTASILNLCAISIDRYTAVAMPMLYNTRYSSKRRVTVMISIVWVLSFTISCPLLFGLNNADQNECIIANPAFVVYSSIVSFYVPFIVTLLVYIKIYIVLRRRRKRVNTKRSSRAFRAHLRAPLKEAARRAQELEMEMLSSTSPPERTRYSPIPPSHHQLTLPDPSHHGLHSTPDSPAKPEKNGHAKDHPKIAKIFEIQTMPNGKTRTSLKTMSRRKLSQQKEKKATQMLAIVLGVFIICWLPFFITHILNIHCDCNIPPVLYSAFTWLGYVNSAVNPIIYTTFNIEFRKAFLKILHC
T1 sequence (P14842 whole entry): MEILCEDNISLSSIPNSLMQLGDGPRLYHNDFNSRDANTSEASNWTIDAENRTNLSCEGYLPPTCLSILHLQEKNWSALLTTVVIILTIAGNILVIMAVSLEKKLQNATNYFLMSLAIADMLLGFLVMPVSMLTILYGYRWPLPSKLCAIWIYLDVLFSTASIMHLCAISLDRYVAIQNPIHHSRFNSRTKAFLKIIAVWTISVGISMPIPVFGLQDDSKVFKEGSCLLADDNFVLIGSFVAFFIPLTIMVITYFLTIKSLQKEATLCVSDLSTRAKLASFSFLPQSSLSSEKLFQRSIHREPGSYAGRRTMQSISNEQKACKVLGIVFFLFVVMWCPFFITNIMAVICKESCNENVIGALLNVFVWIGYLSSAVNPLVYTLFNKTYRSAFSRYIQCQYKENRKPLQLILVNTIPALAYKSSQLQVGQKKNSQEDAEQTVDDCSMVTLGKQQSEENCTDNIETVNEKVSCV
T7 sequence (P14416 whole entry): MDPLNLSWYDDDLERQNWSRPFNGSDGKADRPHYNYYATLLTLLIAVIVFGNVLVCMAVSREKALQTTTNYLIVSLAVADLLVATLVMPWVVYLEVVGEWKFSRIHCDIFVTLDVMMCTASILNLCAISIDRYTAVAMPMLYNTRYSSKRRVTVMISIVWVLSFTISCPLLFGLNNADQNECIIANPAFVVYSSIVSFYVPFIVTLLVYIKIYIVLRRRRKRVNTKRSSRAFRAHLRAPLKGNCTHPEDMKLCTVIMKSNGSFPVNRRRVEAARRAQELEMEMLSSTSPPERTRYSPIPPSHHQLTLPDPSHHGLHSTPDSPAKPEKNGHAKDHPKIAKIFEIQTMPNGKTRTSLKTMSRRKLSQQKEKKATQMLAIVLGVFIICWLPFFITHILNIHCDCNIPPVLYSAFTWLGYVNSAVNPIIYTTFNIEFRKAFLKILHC

Molecule O=C(C[C@H]1CN(C2=Nc3cc(Cl)ccc3Oc3ccccc32)CCN1)O[C@H]1CCOC1 [EQ, (S)-tetrahydrofuran-3-yl 2-((S)-4-((E)-8-chlorodibenzo[b,f][1,4]oxazepin-11-yl)piperazin-2-yl)acetate] has a Kb [1, 8] of 3.16 to 9.77 nM, a Ki [2] of 631 to 2450 nM and a Ki [3] of 10 to 97.7 nM. It also gave a Ki [4] of 10 to 97.7 nM and a Ki [5] of 5010 to 9770 nM.

For CCC(C)OC(=O)C[C@H]1CN(C2=Nc3cc(Cl)ccc3Oc3ccccc32)CCN1C (stereo partly drawn) [DY, sec-butyl 2-((S)-4-((E)-8-chlorodibenzo[b,f][1,4]oxazepin-11-yl)-1-methylpiperazin-2-yl)acetate], the Kb [1, 8] was 10 to 30.9 nM, the Ki [2] was 2510 to 9770 nM and the Ki [3] was 1000 to 9770 nM. For the same molecule, the Ki [6] was 100 to 977 nM, the Ki [4] was 10 to 97.7 nM and the Ki [5] was greater than 10000 nM.

With O=C(O)C[C@H]1CN(C2=Nc3cc(Cl)ccc3Oc3ccccc32)CCN1 [Compound Q, (S,E)-2-(4-(8-chlorodibenzo[b,f][1,4]oxazepin-11-yl)piperazin-2-yl)acetic acid] the Kb [1, 8] was 10 to 30.9 nM, the “affinity for the 5-HT2A receptors, fold lower than Compound K” value ([1]; relative to Compound K) was 8 fold and the “binds to D2S dopamine receptors” value ([2]; in words) was “not”. For the same molecule, the Ki [2] was greater than 10000 nM, the “binds to D2L dopamine receptors” value ([7]; in words) was “not” and the Ki [7] was greater than 10000 nM. The “binding to 5-HT1A” value [3] was “bind”, the Ki [3] was 100 to 977 nM and the “binding to 5-HT2c” value [6] was “bind”. The Ki [6] was 100 to 977 nM, the “binding to H1” value [4] was “bind” and the Ki [4] was 100 to 977 nM. The “affinity to M1 receptors” value [5] was “very low affinity” and the Ki [5] was greater than 10000 nM.

O=C(C[C@H]1CN(C2=Nc3cc(Cl)ccc3Oc3ccccc32)CCN1)OC1CCCC1 [DR, (S,E)-cyclopentyl 2-(4-(8-chlorodibenzo[b,f][1,4]oxazepin-11-yl)piperazin-2-yl)acetate] was tested, and the Kb [1, 8] was 10 to 30.9 nM, the Ki [2] was 631 to 2450 nM and the Ki [7] was 631 to 2450 nM. It also gave a Ki [3] of 10 to 97.7 nM, a Ki [6] of 10 to 97.7 nM and a Ki [4] of 1000 to 9770 nM. For the same molecule, the Ki [5] was 1260 to 2450 nM.

With CCOC(=O)C[C@H]1CN(C2=Nc3cc(Cl)ccc3Oc3ccccc32)CCN1 [Compound K, (S,E)-ethyl 2-(4-(8-chlorodibenzo[b,f][1,4]oxazepin-11-yl)piperazin-2-yl)acetate] the Kb ([1]; rat aorta, Schild plot vs 5-HT, read-out: pA2, antagonist for 5-HT2A receptors (converted)) was 3.16 nM, the Kb [1, 8] was 3.16 to 9.77 nM and the “IC50 binding affinity for D2S receptors” value ([2]; in words) was “low micromolar”. The “binds to D2S dopamine receptors” value ([2]; in words) was “Binds”, the Ki [2] was 631 to 2450 nM and the “affinity for the D2S receptor compared with clozapine” value [2, 9] was “comparable”. The “IC50 binding affinity for D2L receptors” value ([7]; in words) was “low micromolar”, the “binds to D2L dopamine receptors” value ([7]; in words) was “Binds” and the Ki [7] was 631 to 2450 nM. The “affinity for the D2L receptor compared with clozapine” value [7, 9] was “comparable”, the “binding to 5-HT1A” value [3] was “bind” and the Ki [3] was 100 to 977 nM. The “affinity for the 5-HT1A receptors, fold higher than clozapine” value ([3]; relative to clozapine) was 4 fold, the “binding to 5-HT2c” value [6] was “bind” and the Ki [6] was 10 to 97.7 nM. For the same molecule, the “affinity for the 5-HT2c receptors, fold lower than clozapine” value ([6]; relative to clozapine) was 1.2 fold, the “binding to H1” value [4] was “bind” and the Ki [4] was 100 to 977 nM. For the same molecule, the “affinity for the H1 receptors, fold lower than clozapine” value ([4]; relative to clozapine) was 69 fold, the “affinity to M1 receptors” value [5] was “very low affinity” and the Ki [5] was greater than 10000 nM.

With CCOC(=O)CC1CN(C2=Nc3ccc(F)cc3Oc3ccccc32)CCN1 (centres unmarked) [J, (E)-ethyl 2-(4-(7-fluorodibenzo[b,f][1,4]oxazepin-11-yl)piperazin-2-yl)acetate] the Kb [1, 8] was 31.6 to 97.7 nM, the Ki [2] was 2510 to 9770 nM and the Ki [7] was 2510 to 9770 nM. For the same molecule, the Ki [3] was 100 to 977 nM, the Ki [6] was 100 to 977 nM and the Ki [4] was 100 to 977 nM. It also gave a Ki [5] greater than 10000 nM.

CC(C)OC(=O)CC1CN(C2=Nc3cc(Cl)ccc3Oc3ccccc32)CCN1 (centres unmarked) [L, (E)-isopropyl 2-(4-(8-chlorodibenzo[b,f][1,4]oxazepin-11-yl)piperazin-2-yl)acetate] gave a Kb [1, 8] of 10 to 30.9 nM, a Ki [2] of 2510 to 9770 nM and a Ki [7] of 631 to 2450 nM. The Ki [3] was 100 to 977 nM, the Ki [6] was 10 to 97.7 nM and the Ki [4] was 100 to 977 nM. The Ki [5] was greater than 10000 nM.

For CN1CCN(C2=Nc3cc(Cl)ccc3Oc3ccccc32)C[C@@H]1CC(=O)NCC(F)(F)C(F)(F)F [EU, (S,E)-2-(4-(8-chlorodibenzo[b,f][1,4]oxazepin-11-yl)-1-methylpiperazin-2-yl)-N-(2,2,3,3,3-pentafluoropropyl)acetamide], the Kb ([1]; pKb reported on a scale of 1 through 5, read-out: 5HT2A (pKb) (converted)) was greater than 100 nM, the Ki [2] was 2510 to 9770 nM and the Ki [3] was 1000 to 9770 nM. For the same molecule, the Ki [4] was 100 to 977 nM and the Ki [5] was greater than 10000 nM.

Molecule CCOC(=O)C[C@H]1CN(C2=Nc3cc(Cl)ccc3Oc3ccccc32)CCN1CCC(C)C [ER, (S,E)-ethyl 2-(4-(8-chlorodibenzo[b,f][1,4]oxazepin-11-yl)-1-isopentylpiperazin-2-yl)acetate] has a Kb [1, 8] of 31.6 to 97.7 nM, a Ki [2] of 2510 to 9770 nM and a Ki [3] of 1000 to 9770 nM. For the same molecule, the Ki [4] was 100 to 977 nM and the Ki [5] was greater than 10000 nM.

For CCOC(=O)CC1CN(C2=Nc3cc(Cl)ccc3Oc3ccccc32)CCN1 (centres unmarked) [A, (E)-ethyl 2-(4-(8-chlorodibenzo[b,f][1,4]oxazepin-11-yl)piperazin-2-yl)acetate], the Kb [1, 8] was 10 to 30.9 nM, the Ki [2] was 2510 to 9770 nM and the Ki [7] was 631 to 2450 nM. The Ki [3] was 100 to 977 nM, the Ki [6] was 10 to 97.7 nM and the Ki [4] was 100 to 977 nM. For the same molecule, the Ki [5] was 5010 to 9770 nM.

O=C(C[C@H]1CN(C2=Nc3cc(Cl)ccc3Oc3ccccc32)CCN1)OC1CCOCC1 [DV, (S,E)-tetrahydro-2H-pyran-4-yl 2-(4-(8-chlorodibenzo[b,f][1,4]oxazepin-11-yl)piperazin-2-yl)acetate] was tested, and the Kb [1, 8] was 3.16 to 9.77 nM, the Ki [2] was 631 to 2450 nM and the Ki [7] was 2510 to 9770 nM. It also gave a Ki [3] of 10 to 97.7 nM, a Ki [6] of 10 to 97.7 nM and a Ki [4] of 1000 to 9770 nM. The Ki [5] was greater than 10000 nM.

CC(C)OC(=O)CC1CN(C2=Nc3ccc(F)cc3Oc3ccccc32)CCN1 (centres unmarked) [M, (E)-isopropyl 2-(4-(7-fluorodibenzo[b,f][1,4]oxazepin-11-yl)piperazin-2-yl)acetate] showed a Kb [1, 8] of 10 to 30.9 nM, a Ki [2] greater than 10000 nM and a Ki [7] of 2510 to 9770 nM. For the same molecule, the Ki [3] was 100 to 977 nM, the Ki [6] was 100 to 977 nM and the Ki [4] was 1000 to 9770 nM. For the same molecule, the Ki [5] was greater than 10000 nM.
